Measurements taken from PMC3362645, “The Sigma Class Glutathione Transferase from the Liver Fluke Fasciola hepatica” (PLoS Neglected Tropical Diseases, 2012).

biological target: T1, rFhGST-S1 (recombinant Fasciola hepatica Sigma class glutathione transferase) (Fasciola hepatica, UniProt Q06A71); assay: inhibition of GSH-CDNB conjugation, spectrophotometric, graphical IC50; format: biochemical
T1 sequence (Q06A71 1-211): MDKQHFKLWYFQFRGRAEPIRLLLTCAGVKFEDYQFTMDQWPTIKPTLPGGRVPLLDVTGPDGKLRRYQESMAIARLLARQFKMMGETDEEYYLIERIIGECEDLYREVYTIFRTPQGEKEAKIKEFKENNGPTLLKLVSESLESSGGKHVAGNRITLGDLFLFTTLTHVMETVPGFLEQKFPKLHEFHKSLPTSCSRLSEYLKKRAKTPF

Compound | IC50 [µM]
C[S+]([O-])c1nc2cc(Cl)c(Oc3cccc(Cl)c3Cl)cc2[nH]1 (stereo not shown) [TCBZ SO, sulphoxide derivative of Triclabendazole] | 57 ± 5
C[C@H](CCC(=O)O)[C@H]1CC[C@H]2[C@@H]3CC[C@@H]4C[C@H](O)CC[C@]4(C)[C@H]3C[C@H](O)[C@]12C [Deoxycholic acid] | 223 ± 21
C[C@H](CCC(=O)O)[C@H]1CC[C@H]2[C@@H]3[C@H](O)C[C@@H]4C[C@H](O)CC[C@]4(C)[C@H]3C[C@H](O)[C@]12C [Cholic acid] | 302 ± 73
C[C@H](CCC(=O)O)[C@H]1CC[C@H]2[C@@H]3[C@H](O)C[C@@H]4C[C@H](O)CC[C@]4(C)[C@H]3CC[C@]12C [Chenodeoxycholic acid] | 64 ± 9
